Assay results as given in patent publication US10723741B1, “DNA polymerase IIIC inhibitors and use thereof” (Acurx Pharmaceuticals, LLC, priority 2018, dated 2020).
Converted amounts (≈) assume the structure as drawn. Where a name gives a salt, the structure may show the parent alone. Read-outs that look alike come from different tables or passages of the source.

What was measured:
Format in all cases: cell-based
[1] = test system: Escherichia coli ATCC 25922; experiment: Broth microdilution MIC, E. coli ATCC 25922 (MHIIB w & w/o 4 mM EDTA); conditions: for MIC: Escherichia coli, read-out: MIC E. coli ATCC 25922; for MIC E. coli ATCC 25922 + 4 mM EDTA: with 4 mM EDTA
Outline: (§1)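 Two-fold dilutions from 64 to 0.0625 μg/ml final, 1% DMSO, were inoculated at ~5.0×10^5 cfu/ml in the strain's test medium and kept 20 h at 37 °C in ambient atmosphere. Colonies were grown on MHA, with S. pneumoniae on blood agar under 5% CO2.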

[2] = test system: Enterococcus faecalis ATCC 29212; experiment: Broth microdilution MIC, E. faecalis ATCC 29212; conditions: read-out: MIC E. faecalis ATCC 29212
Outline: as §1

[3] = test system: Streptococcus pneumoniae ATCC 49619; experiment: Broth microdilution MIC, S. pneumoniae ATCC 49619; conditions: read-out: MIC S. pneumoniae ATCC 49619
Outline: as §1

[4] = test system: Bacillus subtilis ATCC 6633; experiment: Broth microdilution MIC, B. subtilis ATCC 6633; conditions: read-out: MIC B. subtilis ATCC 6633
Outline: as §1

[5] = test system: Staphylococcus aureus NRS384 (MRSA); experiment: Broth microdilution MIC, S. aureus NRS384 (MRSA); set-up: MIC NRS 384 (MRSA): unit not given here; conditions: for MIC: Staphylococcus aureus, read-out: MIC NRS 384 (MRSA)
Outline: as §1

[6] = test system: Staphylococcus aureus ATCC 29213 (MSSA); experiment: Broth microdilution MIC, S. aureus ATCC 29213 (MSSA); conditions: read-out: MIC S. aureus ATCC 29213 (MSSA)
Outline: as §1

[7] = test system: Enterococcus faecium ATCC 700221 (VRE); experiment: Broth microdilution MIC, E. faecium ATCC 700221 (VRE); set-up: MIC E. faecium ATCC 700221 (VRE): unit: ug/mL; conditions: for MIC: Enterococcus faecium, read-out: MIC E. faecium ATCC 700221 (VRE)
Outline: as §1

[8] = ATCC25922, without EDTA, broth microdilution, 37° C., 20 hours
[9] = broth microdilution, 37° C., 20 hours
[10] = ATCC29212, broth microdilution, 37° C., 20 hours
[11] = ATCC49619, broth microdilution, 37° C., 20 hours
[12] = ATCC6633, broth microdilution, 37° C., 20 hours

| MIC [1, 8] [µg/mL] | MIC E. coli ATCC 25922 + 4 mM EDTA [1, 9] [µg/mL] | MIC [2, 10] [µg/mL] | MIC [3, 11] [µg/mL] | MIC [4, 12] [µg/mL] | MIC [5, 9] [µg/mL] | MIC [6, 9] [µg/mL] | MIC [7, 9] [µg/mL] | MIC NRS 384 (MRSA) [5, 9] | MIC E. faecium ATCC 700221 (VRE) [7, 9] | Structure (SMILES) | MIC ([1]; ATCC25922, 20 h) [µg/mL] | MIC ([2]; ATCC29212, 20 h) [µg/mL] | MIC ([3]; ATCC49619, 20 h) [µg/mL] | MIC ([4]; ATCC6633, 20 h) [µg/mL] | MIC ([5]; 20 h) [µg/mL] | MIC ([6]; 20 h) [µg/mL] | MIC ([7]; 20 h) [µg/mL] |
| --- | --- | --- | --- | --- | --- | --- | --- | --- | --- | --- | --- | --- | --- | --- | --- | --- | --- |
| > 64 | 64 | 64 | 8 | 8 | 64 | 64 | 64 |  |  | CNCC(COC)OCCn1ncc2nc(NCc3ccc(Cl)c(Cl)c3)[nH]c(=O)c21.Cl (stereo not drawn) [Compound 184, 5-((3,4-dichlorobenzyl)amino)-1-(2-((1-methoxy-3-(methylamino)propan-2-yl)oxy)ethyl)-1H-pyrazolo[4,3-d]pyrimidin-7(6H)-one] |  |  |  |  |  |  |  |
| > 64 | >64 | > 64 | > 64 | > 64 | > 64 | > 64 | > 64 |  |  | Cn1ncc2nc(NCc3ccccn3)[nH]c(=O)c21 [Compound 4, 1-Methyl-5-((pyridin-2-ylmethyl)amino)-1H-pyrazolo[4,3-d]pyrimidin-7(6H)-one] |  |  |  |  |  |  |  |
| > 64 | >64 | 4 (≈ 8.38 µM) | 16 (≈ 33.5 µM) | 1 (≈ 2.1 µM) | 4 (≈ 8.38 µM) | 2 (≈ 4.19 µM) | 2 (≈ 4.19 µM) |  |  | O=c1[nH]c(NCc2ccc(Cl)c(Cl)c2)nc2c(Br)nn(CCOCCO)c12 [Compound 52, 3-bromo-5-((3,4-dichlorobenzyl)amino)-1-(2-(2-hydroxyethoxy)ethyl)-1H-pyrazolo[4,3-d]pyrimidin-7(6H)-one] |  |  |  |  |  |  |  |
| > 64 | >64 | > 64 | > 64 | > 64 | > 64 | > 64 | > 64 |  |  | Cn1ncc2nc(NCc3ccc4[nH]ncc4c3)[nH]c(=O)c21 [Compound 13, 5-(((1H-indazol-5-yl)methyl)amino)-1-methyl-1H-pyrazolo[4,3-d]pyrimidin-7(6H)-one] |  |  |  |  |  |  |  |
| > 64 | 64 | 64 (≈ 167 µM) | 32 (≈ 83.7 µM) | 64 (≈ 167 µM) | 64 (≈ 167 µM) | > 64 | 64 (≈ 167 µM) |  |  | O=C(O)CCn1cc2nc(NCc3ccc(Cl)c(Cl)c3)[nH]c(=O)c2n1 [Compound 230, 3-(5-((3,4-Dichlorobenzyl)amino)-7-oxo-6,7-dihydro-2H-pyrazolo[4,3-d]pyrimidin-2-yl)propanoic acid] |  |  |  |  |  |  |  |
| > 64 | >64 | 8 (≈ 19.5 µM) | 4 (≈ 9.75 µM) | 2 (≈ 4.87 µM) |  | 4 (≈ 9.75 µM) |  | 4/4 | 4/4 | O=c1[nH]c(NCc2ccc(Cl)c(Cl)c2)nc2cnn(CCOC3COC3)c12 [Compound 178, 5-((3,4-Dichlorobenzyl)amino)-1-(2-(oxetan-3-yloxy)ethyl)-1H-pyrazolo[4,3-d]pyrimidin-7(6H)-one] |  |  |  |  |  |  |  |
| > 64 | >64 | > 64 | > 64 | > 64 | > 64 | > 64 | > 64 |  |  | Cn1ncc2nc(NCc3cnccn3)[nH]c(=O)c21 [Compound 12, 1-Methyl-5-((pyrazin-2-ylmethyl)amino)-1H-pyrazolo[4,3-d]pyrimidin-7(6H)-one] |  |  |  |  |  |  |  |
| > 64 | >64 | 4 | 4 | 1 | 4 | 4 | 2 |  |  | Cl.O=C(c1ncc[nH]1)N1CCC(n2ncc3nc(NCc4ccc(Cl)c(Cl)c4)[nH]c(=O)c32)CC1 [Compound 269, 1-(1-(1H-imidazole-2-carbonyl)piperidin-4-yl)-5-((3,4-dichlorobenzyl)amino)-1H-pyrazolo[4,3-d]pyrimidin-7(6H)-one hydrochloride] |  |  |  |  |  |  |  |
| > 64 | >64 | 8 (≈ 19.4 µM) | 8 (≈ 19.4 µM) | 4 (≈ 9.7 µM) | 8 (≈ 19.4 µM) | 8 (≈ 19.4 µM) | 4 (≈ 9.7 µM) |  |  | O=c1[nH]c(NCc2ccc(Cl)c(Cl)c2)nc2cnn(CCOCCCO)c12 [Compound 168, 5-[(3,4-dichlorophenyl)methylamino]-1-[2-(3-hydroxypropoxy)ethyl]-6H-pyrazolo[4,3-d]pyrimidin-7-one] |  |  |  |  |  |  |  |
| > 64 | >64 | 8 | 8 | 4 | 16 | 8 | 4 |  |  | COCc1nnc(CCn2ncc3nc(NCc4ccc(Cl)c(Cl)c4)[nH]c(=O)c32)o1.Cl [Compound 235, 5-((3,4-dichlorobenzyl)amino)-1-(2-(5-(methoxymethyl)-1,3,4-oxadiazol-2-yl)ethyl)-1H-pyrazolo[4,3-d]pyrimidin-7(6H)-one hydrochloride] |  |  |  |  |  |  |  |
| > 64 | >64 | 2 (≈ 4.73 µM) | 2 (≈ 4.73 µM) | 1 (≈ 2.36 µM) | 2 (≈ 4.73 µM) | 2 (≈ 4.73 µM) | 0.5 (≈ 1.18 µM) |  |  | N#Cc1nn(CCOCCO)c2c(=O)[nH]c(NCc3ccc(Cl)c(Cl)c3)nc12 [Compound 51, 5-((3,4-dichlorobenzyl)amino)-1-(2-(2-hydroxyethoxy)ethyl)-7-oxo-6,7-dihydro-1H-pyrazolo[4,3-d]pyrimidine-3-carbonitrile] |  |  |  |  |  |  |  |
| > 64 | >64 | 16 (≈ 41.9 µM) | 16 (≈ 41.9 µM) | 8 (≈ 20.9 µM) | 16 (≈ 41.9 µM) | 32 (≈ 83.7 µM) | 8 (≈ 20.9 µM) |  |  | O=C(CO)Cn1ncc2nc(NCc3ccc(Cl)c(Cl)c3)[nH]c(=O)c21 [Compound 290, 5-((3,4-dichlorobenzyl)amino)-1-(3-hydroxy-2-oxopropyl)-1H-pyrazolo[4,3-d]pyrimidin-7(6H)-one] |  |  |  |  |  |  |  |
| > 64 | >64 | 32 (≈ 90.6 µM) | 8 (≈ 22.6 µM) | 8 (≈ 22.6 µM) | 64 (≈ 181 µM) | 64 (≈ 181 µM) | 32 (≈ 90.6 µM) |  |  | NCCn1ncc2nc(NCc3ccc(Cl)c(Cl)c3)[nH]c(=O)c21 [Compound 63, 1-(2-Aminoethyl)-5-[(3,4-dichlorophenyl)methylamino]-6H-pyrazolo[4,3-d]pyrimidin-7-one] |  |  |  |  |  |  |  |

| Structure (SMILES) | MIC [1, 8] [µg/mL] | MIC E. coli ATCC 25922 + 4 mM EDTA [1, 9] [µg/mL] | MIC [2, 10] [µg/mL] | MIC [3, 11] [µg/mL] | MIC [4, 12] [µg/mL] | MIC [5, 9] [µg/mL] | MIC [6, 9] [µg/mL] | MIC [7, 9] [µg/mL] | MIC NRS 384 (MRSA) [5, 9] | MIC E. faecium ATCC 700221 (VRE) [7, 9] | MIC ([1]; ATCC25922, 20 h) [µg/mL] | MIC ([2]; ATCC29212, 20 h) [µg/mL] | MIC ([3]; ATCC49619, 20 h) [µg/mL] | MIC ([4]; ATCC6633, 20 h) [µg/mL] | MIC ([5]; 20 h) [µg/mL] | MIC ([6]; 20 h) [µg/mL] | MIC ([7]; 20 h) [µg/mL] |
| --- | --- | --- | --- | --- | --- | --- | --- | --- | --- | --- | --- | --- | --- | --- | --- | --- | --- |
| O=c1[nH]c(NCc2ccc(Cl)c(Cl)c2)nc2cnn(CCCOC3CC(O)C3)c12 (stereo not drawn) [Compound 179, 5-((3,4-dichlorobenzyl)amino)-1-(3-(3-hydroxycyclobutoxy)propyl)-1H-pyrazolo[4,3-d]pyrimidin-7(6H)-one] | > 64 | >64 | 4 (≈ 9.13 µM) | 4 (≈ 9.13 µM) | 1 (≈ 2.28 µM) | 4 (≈ 9.13 µM) | 8 (≈ 18.3 µM) | 2 (≈ 4.56 µM) |  |  |  |  |  |  |  |  |  |
| O=c1[nH]c(NCc2ccc(Cl)c(Cl)c2)nc2cnn(C3CCNC3)c12 (stereo not drawn) [Compound 216, 5-((3,4-dichlorobenzyl)amino)-1-(pyrrolidin-3-yl)-1H-pyrazolo[4,3-d]pyrimidin-7(6H)-one TFA salt] |  | >64 |  |  |  |  |  |  |  |  | > 64 | 16 | 4 | 4 | 16 | 16 | 16 |
